Source: patent US8044025B2 (Research Development Foundation, priority 2000, dated 2011)
“Also recorded” adds a separate entry of the source. No end group written: not given here.

Experiments:
CRF-R2β = target: T1, CRF-R2β (Mus musculus, UniProt Q60748); assay: Radioreceptor assay, displacement of 125I-[Tyr0,Glu1,Nle17]-sauvagine, CHO cell membranes (Example 4); details: 3-6 experiments, range from SD of log10 values, read-out: CRF-R2 Avg. Ki (nM) (Binding)
T1 construct: expressed in transfected cells; host or cells: CHO cells, stably transfected
T1 sequence (Q60748 27-431 isoform Q60748-2 limits assumed): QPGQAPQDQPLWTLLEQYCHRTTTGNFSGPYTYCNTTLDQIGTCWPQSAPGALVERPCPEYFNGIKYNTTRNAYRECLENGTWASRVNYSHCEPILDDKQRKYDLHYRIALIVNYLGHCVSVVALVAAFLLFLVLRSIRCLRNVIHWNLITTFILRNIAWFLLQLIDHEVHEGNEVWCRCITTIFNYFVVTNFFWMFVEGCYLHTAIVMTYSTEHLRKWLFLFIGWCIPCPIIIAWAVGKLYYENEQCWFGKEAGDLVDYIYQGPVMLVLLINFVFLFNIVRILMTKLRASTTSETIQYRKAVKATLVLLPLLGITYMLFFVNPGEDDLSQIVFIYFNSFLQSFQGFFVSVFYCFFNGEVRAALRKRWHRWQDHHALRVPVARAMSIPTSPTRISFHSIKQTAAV
Protocol: (§1) The affinity of Ucn II to the CRF-R1 and CRF-R2 receptors was evaluated using a radioreceptor assay. Crude membrane fractions were prepared from CHO cells stably expressing either cloned CRF-R1 or CRF-R2β. Test peptides and the radioligand, ^125I-[Tyr^0, Glu^1, Nle^17]-sauvagine, were diluted in assay buffer (20 mM HEPES, 2 mM EGTA, 0.1% BSA, 10% sucrose, pH 7.6) and combined with the receptor membrane preparations in MAGV microtiter plates (Millipore) pre-coated with 0.1% polyethylene imine. The reaction mixture was incubated for 90 min at room temperature followed by rapid washing twice with assay buffer and filtration. The radioligand complex was quantified by gamma radiation counting. Inhibitory binding constants were determined using Prism software.
(§2) The values were determined from 3-6 independent experiments using stably transfected CHO cells or their membranes for each test peptide. EC50 and Ki values were determined using Prism software. Their log10 values were averaged (γ). The average EC50 or Ki was taken to be 10^γ. The standard deviation of the log10 values was calculated (σ). The ranges given were taken to be: [(10^γ)10^σ or 10^γ/10^σ].

CRFR1 [1] = target: T2, CRFR1 (Homo sapiens, UniProt P34998); assay: as above; details: 3-6 experiments, range from SD of log10 values, read-out: CRF-R1 Avg. Ki (nM) (Binding)
T2 construct: expressed in transfected cells; host or cells: CHO cells, stably transfected
T2 sequence (P34998 24-415): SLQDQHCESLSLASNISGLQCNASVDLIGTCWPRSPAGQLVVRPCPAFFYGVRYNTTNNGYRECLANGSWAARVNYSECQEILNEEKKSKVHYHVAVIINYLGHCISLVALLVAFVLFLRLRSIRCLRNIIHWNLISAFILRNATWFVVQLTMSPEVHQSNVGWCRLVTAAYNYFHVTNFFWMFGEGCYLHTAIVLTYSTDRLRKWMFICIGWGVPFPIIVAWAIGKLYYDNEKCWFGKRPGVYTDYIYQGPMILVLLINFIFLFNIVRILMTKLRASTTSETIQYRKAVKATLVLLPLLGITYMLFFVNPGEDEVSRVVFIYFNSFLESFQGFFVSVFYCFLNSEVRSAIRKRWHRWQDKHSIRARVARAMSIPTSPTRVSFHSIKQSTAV
Protocol: as §1, §2

CRF-R2 = target: T3, CRF-R2 (Mus musculus, UniProt Q60748); assay: Accumulation of intracellular cAMP in stably transfected CHO cells; type: cell-based; details: peptides 20 min at 37° C.
T3 construct: expressed in transfected cells; host or cells: CHO cells, stably transfected
T3 sequence (Q60748 27-431 isoform Q60748-2 limits assumed): as the sequence (Q60748 27-431 isoform Q60748-2 limits assumed) above
Protocol: as §2
(§3) This significant selectivity for the type 2 receptor was seen also in receptor activation as measured by accumulation of intracellular cAMP. Stably transfected CHO cells (cultured in DMEM/10% FBS) were plated into 48-well tissue culture dishes (Costar) and allowed to recover for 24 hours. The medium was changed to DMEM/0.1% FBS at least two hours before treatment. The cells were preincubated for 30 min with 0.1 mM 3-isobutyl-1-methylxanthine and then exposed to peptides for 20 min at 37° C. Intracellular cAMP was extracted and measured in duplicate from triplicate wells using a RIA kit (Biomedical Technologies). […] The extremely low affinity of Ucn II for CRF-R1 precluded a determination of its efficacy on this receptor.

CRFR1 [2] = target: T2, CRFR1; assay: as above; type: cell-based; details: peptides 20 min at 37° C.
Protocol: as §2, §3

CRFR1 [3] = target: T2, CRFR1; assay: Displacement of 125I-Sauvagine binding, CHO membranes (Example 5)
Protocol: (§4) FIGS. 5A and 5B show the human urocortin-related peptide mediated displacement of ^125I-Sauvagine binding to CRFR1 and CRFR2β, respectively. The affinities of Ucn and URP peptides for CRFR1 and CRFR2β_stably expressed in CHO cells were determined by the competitive displacement of the ^125I-Sauvagine.
(§5) Membranes were prepared as described above (29). Binding was performed in 96-well 0.2 μm Durapore plates using the vacuum filtration multiscreen assay system (Millipore). […] Plates were incubated for 1 hour at room temperature, vacuum-filtered, washed twice with binding buffer, and allowed to dry. Individual filters were punched out and counted using a gamma counter.

CRFR2β = assay: as above; details: CRF-R2β versus CRF-R1
Protocol: as §4, §5

Fos expression = assay: hURP-stimulated Fos expression in rat brain; type: in vivo; details: 5 μg icv, rats sacrificed two hours later
Protocol: Activation of central stress-related cells groups by human urocortin-related peptide was examined by detection of the Fos gene product in the cells following injection with human urocortin-related peptide. Rats were implanted with guide cannulae in a lateral cerebral ventricle seven days prior to experimentation. On the day of testing, the rats were injected with 5 μg synthetic human urocortin-related peptide in 5 μl of sterile saline. The rats were sacrificed two hours later and slides of various brain sections were prepared. The slides were stained by immunoperoxidase localization of Fos-immunoreactivity using a polyclonal serum raised in rabbit against residues 3-16 of the human Fos protein.

[4] = system: rat anterior pituitary cells; assay: ACTH secretion from primary rat anterior pituitary cells; type: cell-based; details: primary cultures of rat anterior pituitary cells
Protocol: Secreted ACTH was measured using a kit (Nichols Institute Diagnostics).
For pituitary actions, ACTH secretion response to human urocortin-related peptide was measured in primary cultures of rat anterior pituitary cells as described (30). ACTH levels were determined using the ACTH immunoassay kit from Nichols Institute Diagnostics. The rat anterior pituitary cells were treated with either rat urocortin or human urocortin-related peptide and the level of secreted ACTH was measured, using a kit (Nichols Institute Diagnostics).

[5] = Gross motor activity after icv hURP; type: in vivo, rat; details: 5 μg icv, counts over four hours
Source text: To determine if human urocortin-related peptide plays a role in the generation of stress response, the effect of human urocortin-related peptide on the gross motor activity of rats was examined. Cannulas were surgically into the right lateral ventricle while telemeters were implanted intraabdominally to allow for continuous monitoring of gross motor activity. The animals were allowed a post-surgical recovery period of seven days. During the time, the animals were handled daily to acclimatize the animals to the injection procedure. On the day of injection, baseline activity was for recorded for four hours. At 6:00 p.m., which was the onset of lights out, the animals received an injection of either 5 μl of saline or 5 μl of saline containing a total of 5 μg of human urocortin-related peptide. Activity counts were summated over a four hour time period.

[6] = Body temperature after icv hURP; type: in vivo, rat; details: 5 μg icv, monitored twelve hours
Source text: The effect of human urocortin-related peptide on the body temperature of rats was examined. Cannulas for injection of human urocortin-related peptide were surgically into the right lateral ventricle. Telemeters for the continuous unobtrusive analysis of body temperature were implanted intraabdominally. The animals were allowed a post-surgical recovery period of seven days. During the time, the animals were handled daily to acclimatize the animals to the injection procedure. On the day of injection, baseline temperature was for recorded for three hours. At 6:00 p.m. (the onset of lights out) the animals were injected with either 5 μl of saline or 5 μl of 1 μg/μl human urocortin-related peptide in saline. Body temperature was monitored every five minutes for twelve hours.

[7] = Food intake after icv hURP; type: in vivo, rat; details: 5 μg icv
Protocol: The effect of human urocortin-related peptide on appetite was also examined in rats. Cannulas for injection of human urocortin-related peptide were surgically into the right lateral ventricle and the animals were allowed to recover for seven days. During the time, the animals were handled daily to acclimatize the animals to the injection procedure. On the day of injection, the animals were injected with either 5 μl of saline or 5 μl of 1 μg/μl human urocortin-related peptide in saline. The amount of food eaten by each animal was recorded every hour for six hours and at fourteen hours.

[8] = Nocturnal food intake after icv peptide; type: in vivo, rat; details: 1 μg icv, rats
Source text: (§6) To identify cell groups responsive to central Ucn II administration, and to evaluate the extent to which these may conform to sites of CRF-R2 expression, the induced expression of the immediate-early gene product, Fos, in response; to icv peptide administration was monitored. Adult male Sprague-Dawley rats (250-300 g at start of experiments) and C57 BL/6 mice (25-40 g) were housed in a colony room on a 12:12 light:dark cycle, and with free access to food and water prior to experimentation. For intracerebroventricular (icv) injections, rats were anesthetized with ketamine/xylazine/acepromazine and stereotaxically implanted with a 26 ga guide cannula terminating in the lateral ventricle. For intravenous (iv) administration of peptides, animals were fitted with indwelling jugular venous catheters. […]
To monitor induced patterns of Fos expression, rats were injected at 10 am, either icv or iv with synthetic Ucn II (1, 5 or 10 μg/animal in 2 μl saline for icv injections or 200 μl for iv administration), or vehicle alone, and perfused two hours later. […] Consumption was then measured hourly for 6 hrs and at 12 hrs. Data were analyzed using repeated measures analysis of variance (ANOVA), with the Bonferoni correction for multiple comparisons applied as warranted. […]

[9] = Telemetric gross motor activity after icv peptide; type: in vivo, rat; details: 1 μg icv, rats, telemetry
Source text: as §6, with “catheters. Rats that received icv injections were also implanted intra-abdominally with a transmitter to remotely monitor gross activity levels and body temperature (Mini-Mitter). After surgery, animals were allowed to recover for 7 days prior to any experimentation, during which time they were handled daily.” for “catheters.”
In these same subjects, gross motor activity and body temperature were monitored telemetrically (FIG. 10B). […] Core body temperature was also recorded, with each peptide provoking comparably mild (0.5-1° C.) and transient (2 hr) hypothermic responses (data not shown).

Row | Substance | Ki (CRF-R2β) [nM] | Ki (CRFR1 [1]) [nM] | EC50 (CRF-R2) [nM] | EC50 (CRFR1 [2]) [nM] | Ki (CRFR1 [3]; Example 5, FIG. 5, CHO cells, read-out: Disassociation constant (Ki) for CRF-R1) [nM] | Ki (CRFR1 [3]; synthesized peptide, as stated in the Summary, read-out: Ki for CRF-R1 (summary statement)) [nM] | Specificity for CRF type II receptor relative to urocortin (CRFR2β) | Fos-immunoreactivity in central stress-related cell groups (Fos expression) | Stimulation of ACTH secretion relative to urocortin ([4]; listed as Human urocortin-related peptide) | Stimulation of ACTH secretion relative to urocortin ([4]; listed as human urocortin-related peptide) | Gross motor activity versus saline controls [5] | Body temperature versus saline controls [6] | Total food consumed versus control ([7]; over fourteen hours) | Food consumed during each time period versus control ([7]; per time period) | Degree of suppression of food intake over the 12 hr interval ([8]; nocturnal phase) [%] | Time post-injection at which food intake is significantly less than saline controls [8] [h] | Gross motor activity versus vehicle [9]
1 | IVLSLDVPIGLLQILLEQARARAAREQATTNARILARVGHC-NH2 [URP (human)] | 0.5 | > 100 | 0.42 | > 100 | 78 | 70 | much more specific for the corticotropin releasing factor type II receptor than urocortin | Fos-immunoreactivity was detected | significantly lower potency compared to urocortin or CRF | less sensitive to human urocortin-related peptide than to urocortin | No significant difference in gross motor activity | lower body temperatures both immediately and at seven hours after injection | ate significantly less food than control animals | especially ate less food during the first and third hours after injection as well as during the final eight hours of the experiment | – | – | –
2 | CRF: 41-amino acid peptide initiating pituitary-adrenal responses to stress; R1-selective agonist (SEEPPISLDLTFHLLREVLEMARAEQLAQQAHSNRKLMEII; ends and bridges not checked; UniProt P06850 154-194, looked up) | – | – | – | – | – | – | – | – | – | – | – | – | – | – | 30 | 4 | significantly more active than vehicle-treated rats; also recorded: significantly elevated
